Consider 2 molecules from patent US20240325394A1, “SALT AND CRYSTAL FORM OF NITROGEN-CONTAINING HETEROCYCLIC DERIVATIVE, PREPARATION METHOD THEREFOR AND APPLICATION THEREOF” (SHANGHAI HANSOH BIOMEDICAL CO., LTD., priority 2020, published 2024).

In general, MRT refers to a mean duration of stay, worked out from the concentration-time curve. As a reminder, the half-life is how long it takes for the measured level to halve. The fraction unbound is free concentration divided by total concentration. A low value points to little free substance. By IC50 is commonly meant the concentration that inhibits the measured activity by half.

The nature of data set [1]: Pharmacokinetics in MiaPaca 2 tumor-bearing mice (plasma, tumor tissue). To be noted: female, mouse, po; Plasma, p.o. 6 mg/kg. In kind it is in vivo. The protocol:
The pharmacokinetic behavior of the compound of the embodiment 13-1 and AMG-510 compound, administered orally at a dose of 6 mg/kg, in mice (plasma, tumor tissue and intestine) was studied using MiaPaca 2 tumor-bearing mice as test animals.
24 MiaPaca 2 tumor-bearing mice, females. 3 for each time point (0 h, 1 h, 2 h, 4 h, 6 h, 8 h, 16 h, 24 h). Shanghai xipuer-bikai Laboratory Animal Co., Ltd, Animal Production License No. (SCXK (Shanghai) 2018-0006.
Embodiment compound 13-1 and compound AMG-510 were weighed and dissolved in the solution, the mixture was shaken well, and ultrasound was performed for 15 minutes to obtain a uniform suspension with a concentration of 0.6 mg/mL.
MiaPaca 2 tumor-bearing mice were administered at a dose of 6 mg/kg in a volume of 10 mL/kg, respectively, based on body weight p.o. after fasting (animals were not administered at point 0 h).
Before and after administration, mice were sacrificed with CO2, 0.5 mL blood was collected from the heart and placed in EDTA-2K tube, centrifuged at 4° C. […] The duodenum, ileum and colon tissues were cut with scissors, the contents were removed and cleaned twice with PBS, after absorbing water with absorbent paper, they were weighed, placed in a 2 mL centrifuge tube and stored at −80° C.

Data set [2] can be described thus: Plasma protein binding rate test, human plasma. In kind it is in vitro ADME. The conditions noted are these: 37° C. The protocol: (§1) The embodiment compound was prepared into a 1 mM solution A with DMSO.
(§2) Solution A was added to the plasma solution and prepared into a 5 μM solution B.
(§3) • 1) 200 μL of solution B was added into the membrane. • 2) 350 μL of PBS was added to the outside of the membrane. • 3) Incubating in a 37° C. water bath for 6 hours. • 4) The samples were processed for dilution and detected by mass spectrometry.
(§4) • instrument: Shimadzu LC-20 AD; • chromatographic column: phenomenex Gemiu® C18 (50*4.6 mm, 5 UM particle size); • mobile phase: A: Acetonitrile, B: 0.1% formic acid solution 0-0.5 min: 5% A→90% A, 2.0-2.1 min: 90% A→5% A; flow rate: 0.8 mL/min; running time: 5.0 min; injection volume: 5 μL.
(§5) • instrument: API4000 Liquid Chromatography-Mass Spectrometry, AB, USA; • the ion source was electrospray ionization source (ESI); • the temperature of dry gas (N2) was 500° C.; • electrospray voltage was 5500V; • the detection method was positive ion detection; • the scanning mode was selective response monitoring (MRM); the scanning time was 0.1 s.

The subject of data set [3] is Mia PaCa-2 cells (KRAS G12C mutant). As to the kind of experiment: Inhibition of Mia PaCa-2 cell proliferation (CellTiter-Glo, 72 h). It is filed as cell-based, human. The procedure: When NCI-H358 or Mia PaCa-2 cells were cultured to the appropriate fusion level, the NCI-H358 or Mia PaCa-2 cells were collected, and the cells were adjusted to the appropriate cell concentration using a complete medium, and the cell suspension was spread in a 96-well plate, 90 μL per well, and placed in a 37° C., 5% CO2 incubator overnight; and compound solutions of different concentrations were prepared using DMSO and culture medium; and a solvent control was set, the compound solution was added to a 96-well plate, 10 μL per well, at 37° C. in a 5% CO2 incubator for 72 hours; CellTiter-Glo solution was added thereto and the mixture was mixed well by shaking, incubated for 10 min in the dark, and read by BioTek Synergy H1 microplate reader.
The luminescence signal values were used to calculate the inhibition rate, the concentration and the inhibition rate were fitted to a nonlinear regression curve using Graphpad Prism software, then the IC50 value was obtained.
In general terms: Cellular ATP, detected with luciferase, serves as a proxy for viable cell number.

The test system of data set [4] is plasma protein. As to the kind of experiment: Plasma protein binding rate test, dog plasma. In kind it is in vitro ADME. To be noted: 5 μM, 37° C., 6 hours. The protocol:
as §1, §2, §3, §4, §5

For data set [5], the system named is phosphorylated ERK in Mia PaCa-2 cells. The experiment in a line: Inhibition of phosphorylated ERK in Mia PaCa-2 cells (LANCE Ultra). It is filed as cell-based, human. The conditions noted are these: 2 hours treatment; read-out: Mia PaCa-2 pERK IC50. The protocol:
When Mia PaCa-2 cells were cultured to the appropriate fusion level, Mia PaCa-2 cells were collected, and the cell density was adjusted to 1×10^6/mL using complete culture medium, the cell suspension was spread on a 96-well plate, 50 μL per well, and placed adherent to the wall in a 37° C., 5% CO2 incubator overnight, compound solutions with different concentrations were prepared using DMSO and complete culture medium, a solvent control was set, the compound solution was added to a 96-well plate, 25 μL per well, and placed in a 37° C., 5% CO2 incubator for 2 hours of continuous culture, the supernatant was discarded from the cell culture plate, 50 μL of lysis solution was added to each well, and lysing was performed for 30 minutes by shaking at room temperature, then the mixture was centrifuged at 1000 rpm for 1 minute, 15 μL of supernatant was transferred to 384 well plate, 5 μL of detection mixture (Eu-labeled anti-ERK1/2 (T202-Y204) antibody with final concentration of 0.5 nM and ULight labeled anti-ERK1/2 antibody with final concentration of 5 nM) was added to each well, centrifuged at 1000 rpm for 1 minute and mixed uniformly, the reaction was carried out overnight at room temperature, the plate was read with BioTek Synergy H1, and the signal values was detected at 620 nm and 665 nm emission wavelengths by time-resolved fluorescence program. […]
A general note: TR-FRET usually uses a lanthanide donor and a delayed reading to cut background.

Data set [6] has as its system plasma protein. The experiment in a line: Plasma protein binding rate test, rat plasma. It is filed as in vitro ADME. The conditions noted are these: 5 μM, 37° C., 6 hours. The protocol: as §1, §2, §3, §4, §5
The test system of data set [7] is plasma protein. As to the kind of experiment: Plasma protein binding rate test, mouse plasma. In kind it is in vitro ADME. To be noted: 5 μM, 37° C., 6 hours. The procedure:
as §1, §2, §3, §4, §5

Data set [8] deals with plasma protein. As to the kind of experiment: Plasma protein binding rate test, human plasma. In kind it is in vitro ADME. The conditions noted are these: 5 μM, 37° C., 6 hours. The protocol: as §1, §2, §3, §4, §5

For the molecule `C=CC(=O)N1C[C@H](C)N(c2nc(=O)n(-c3c(SC)ccnc3C(C)C)c3nc(-c4c(N)ccc(Cl)c4F)c(Cl)cc23)C[C@H]1C` (atropisomer, axis not shown) [Embodiment 13-1, P-4-((2S,5R)-4-Acryloyl-2,5-dimethylpiperazin-1-yl)-7-(6-amino-3-chloro-2-fluorophenyl)-6-chloro-1-(2-isopropyl-4-(methylthio)pyridin-3-yl)pyrido[2,3-d]pyrimidin-2(1H)-one], in data set [1], the MRT was 54 min and the half-life is 30 min. In data set [2], this molecule had a fraction unbound at 6 h, 5 μM of 0.003.

As for “P-4-((2S,5R)-4-acryloyl-2,5-dimethylpiperazin-1-yl)-6-fluoro-7-(2-fluoro-6-hydroxyphenyl)-1-(2-isopropyl-4-(methylthio)pyridin-3-yl)pyrido[2,3-d]pyrimidin-2(1H)-one [Embodiment 2-1]”, the IC50 in data set [3] worked out at 29 nM; in data set [5], 38 nM. The “Plasma protein binding rate, Dog” value in the data set with plasma protein [4] is 82.6. The “Plasma protein binding rate, Rat” value in the data set with plasma protein [6] amounted to 90.5. Further, in the data set with plasma protein [7], the “Plasma protein binding rate, Mouse” value is reported as 88.4. In addition, the “Plasma protein binding rate, Human” value with plasma protein [8] is 98.0.
